Measured values: patent publication US11766628B2, “Purification and extraction of cannabinoids” (CHEMTOR, LP, priority 2020, dated 2023)

Experiment: Partition of cannabinoids between degummed cannabis oil miscella and water/ethanol/base extraction solvent in a fiber conduit contactor
Assay type: physicochemical
Parameters: scale not given here
Source text: Degummed miscella from Example 1A were used to investigate the extraction of acid cannabinoids into a water/ethanol solvent using a fiber conduit contactor. Bases tested included sodium bicarbonate (NaHCO3), sodium carbonate (Na2CO3), potassium bicarbonate (KHCO3), and potassium carbonate (K2CO3). The hardness difference between a sodium and potassium radii (smaller radii are harder, larger radii are softer) creates a variation in the property of the resulting soaps. Sodium salts give a so-called “harder” soap that is more likely to be rejected from the crude miscella. Switching from bicarbonate to carbonate has two effects: (1) higher ion count in solution, thereby increasing ionic strength/polarity; and (2) increasing the pH by approximately 1 pH unit for the same wt % solution. This increased polarity can be used to enforce selectivity of the desired compounds.
As shown in the results below, there are multiple options for extracting specific combinations of cannabinoids. The bicarbonate bases gave a preference to acid cannabinoids, whereas the stronger carbonate bases were able to increase the total mass transfer. These parameters can be used to control the outflow product streams. The partition coefficients for various combinations are summarized in Table 3 and can be used to determine the optimal extraction solvent for a target compound or goal.
In Table 3 above, the Examples are ordered by decreasing polarity from top to bottom. A lower number specifies a preference for extraction and a high number specifies a preference to remain in the neutral oil. Blank squares are where coefficients could not be calculated.

[1] = Base K2CO3, H2O/EtOH/Base (wt %) 68.3/29.1/2.5
[2] = Base K2CO3, H2O/EtOH/Base (wt %) 73.0/24.5/2.5
[3] = Base K2CO3, H2O/EtOH/Base (wt %) 77.9/19.5/2.6
[4] = Base K2CO3, H2O/EtOH/Base (wt %) 82.8/14.7/2.5
[5] = Base K2CO3, H2O/EtOH/Base (wt %) 87.5/10/2.5
[6] = Base KHCO3, H2O/EtOH/Base (wt %) 68.1/29.4/2.6
[7] = Base KHCO3, H2O/EtOH/Base (wt %) 73.1/24.3/2.6
[8] = Base KHCO3, H2O/EtOH/Base (wt %) 78.0/19.5/2.5
[9] = Base KHCO3, H2O/EtOH/Base (wt %) 82.7/14.8/2.5
[10] = Base Na2CO3, H2O/EtOH/Base (wt %) 68.4/29.1/2.5
[11] = Base Na2CO3, H2O/EtOH/Base (wt %) 73.2/24.2/2.6
[12] = Base Na2CO3, H2O/EtOH/Base (wt %) 77.6/19.9/2.5
[13] = Base Na2CO3, H2O/EtOH/Base (wt %) 82.9/14.5/2.6
[14] = Base Na2CO3, H2O/EtOH/Base (wt %) 87.8/9.7/2.6
[15] = Base NaHCO3, H2O/EtOH/Base (wt %) 67.8/29.7/2.4, lower = preference for extraction, higher = remains in neutral oil
[16] = Base NaHCO3, H2O/EtOH/Base (wt %) 68.4/29.5/2.0
[17] = Base NaHCO3, H2O/EtOH/Base (wt %) 69.0/29.6/1.5
[18] = Base NaHCO3, H2O/EtOH/Base (wt %) 69.9/29.9/0.25
[19] = Base NaHCO3, H2O/EtOH/Base (wt %) 72.9/24.6/2.5
[20] = Base NaHCO3, H2O/EtOH/Base (wt %) 77.9/19.6/2.5
[21] = Base NaHCO3, H2O/EtOH/Base (wt %) 81.2/16.3/2.5
[22] = Base NaHCO3, H2O/EtOH/Base (wt %) 879./9.7/2.4

Work on C=C(C)[C@@H]1CCC(C)=C[C@H]1c1c(O)cc(CCCCC)c(C(=O)O)c1O [CBDA, cannabidiolic acid] yielded a Partition coefficient [1] of 0.04, a Partition coefficient [2] of 0.45 and a Partition coefficient [3] of −0.16. For the same molecule, the Partition coefficient [4] was −0.08, the Partition coefficient [5] was 0 and the Partition coefficient [6] was −1.02. For the same molecule, the Partition coefficient [7] was −0.59, the Partition coefficient [8] was 0.04 and the Partition coefficient [9] was 0.21. For the same molecule, the Partition coefficient (Base KHCO3, H2O/EtOH/Base (wt %) 86.3/11.3/2.5) was 0.19, the Partition coefficient [10] was −2.37 and the Partition coefficient [11] was −2.22. The Partition coefficient [12] was −2.22, the Partition coefficient [13] was −2.11 and the Partition coefficient [14] was −1.75. The Partition coefficient [15] was 0.43, the Partition coefficient [16] was −0.19 and the Partition coefficient [17] was 0.1. The Partition coefficient (Base NaHCO3, H2O/EtOH/Base (wt %) 69.2/29.8/1.0) was 0.22, the Partition coefficient [18] was 0.38 and the Partition coefficient [19] was 0.68. The Partition coefficient [20] was 1.09, the Partition coefficient [21] was 1.05 and the Partition coefficient [22] was 0.96.

In the case of CCCCCc1cc2c(c(O)c1C(=O)O)[C@@H]1C=C(C)CC[C@H]1C(C)(C)O2 [THCA, tetrahydrocannabinolic acid], the Partition coefficient [1] is reported as 0.28, the Partition coefficient [3] is reported as −0.09 and the Partition coefficient [4] is reported as −0.05. The Partition coefficient [5] was 0.15, the Partition coefficient [6] was 1.26 and the Partition coefficient [7] was 1.76. The Partition coefficient [10] was −0.18, the Partition coefficient [11] was −0.02 and the Partition coefficient [12] was −0.02. For the same molecule, the Partition coefficient [13] was 0.06, the Partition coefficient [14] was 0.41 and the Partition coefficient [15] was 0.91. For the same molecule, the Partition coefficient [19] was 1, the Partition coefficient [20] was 1.33 and the Partition coefficient [21] was 1.16. For the same molecule, the Partition coefficient [22] was 1.12.

For C=C(C)[C@@H]1CCC(C)=C[C@H]1c1c(O)cc(CCCCC)cc1O [CBD, cannabidiol, reference compound], the Partition coefficient [1] was 0.55, the Partition coefficient [2] was 0.87 and the Partition coefficient [3] was 0.19. For the same molecule, the Partition coefficient [4] was 0.19, the Partition coefficient [5] was 0.1 and the Partition coefficient [6] was 0.6. The Partition coefficient [7] was 1.06, the Partition coefficient [8] was 1.59 and the Partition coefficient [9] was 1.43. It also gave a Partition coefficient [10] of −0.87, a Partition coefficient [11] of −0.86 and a Partition coefficient [12] of −0.94. It also gave a Partition coefficient [13] of −0.9, a Partition coefficient [14] of −0.55 and a Partition coefficient [15] of 0.48. For the same molecule, the Partition coefficient [16] was 1.4, the Partition coefficient [17] was 1.86 and the Partition coefficient [19] was 0.78. For the same molecule, the Partition coefficient [20] was 1.29, the Partition coefficient [21] was 1.25 and the Partition coefficient [22] was 1.14.

In the case of CCCCCc1cc(O)c(C/C=C(\C)CCC=C(C)C)c(O)c1C(=O)O [CBGA, cannabigerolic acid], the Partition coefficient [1] is reported as 0.15, the Partition coefficient [3] is reported as −0.19 and the Partition coefficient [4] is reported as −0.15. It also gave a Partition coefficient [5] of −0.1, a Partition coefficient [6] of 0.33 and a Partition coefficient [7] of 0.72. The Partition coefficient [8] was 1.4, the Partition coefficient [9] was 1.61 and the Partition coefficient [10] was −0.57. For the same molecule, the Partition coefficient [11] was −0.47, the Partition coefficient [12] was −0.5 and the Partition coefficient [13] was −0.44. The Partition coefficient [14] was −0.14, the Partition coefficient [15] was 0.46 and the Partition coefficient [19] was 0.76. For the same molecule, the Partition coefficient [20] was 1.2, the Partition coefficient [21] was 1.19 and the Partition coefficient [22] was 1.1.

For CCCCCc1cc(O)c2c(c1)OC(C)(C)[C@@H]1CCC(C)=C[C@@H]21 [THC, tetrahydrocannabinol, reference compound], the Partition coefficient [1] was 0.59, the Partition coefficient [3] was 0.1 and the Partition coefficient [4] was 0.09. The Partition coefficient [5] was 0.13, the Partition coefficient [10] was 0.22 and the Partition coefficient [11] was 0.2. It also gave a Partition coefficient [12] of 0.1, a Partition coefficient [13] of 0.13 and a Partition coefficient [14] of 0.47. It also gave a Partition coefficient [15] of 0.77, a Partition coefficient [19] of 1.03 and a Partition coefficient [20] of 1.43. It also gave a Partition coefficient [21] of 1.28 and a Partition coefficient [22] of 1.17.

Molecule CCCCCc1cc(O)c2c(c1)OC(C)(CCC=C(C)C)C=C2 (stereo not shown) [CBC, cannabichromene] has a Partition coefficient [1] of 0.6, a Partition coefficient [3] of 0.23 and a Partition coefficient [4] of 0.23. For the same molecule, the Partition coefficient [5] was 0.16, the Partition coefficient [10] was −0.2 and the Partition coefficient [11] was −0.16. It also gave a Partition coefficient [12] of −0.21, a Partition coefficient [13] of −0.14 and a Partition coefficient [14] of 0.22. The Partition coefficient [15] was 0.54, the Partition coefficient [19] was 0.83 and the Partition coefficient [20] was 1.42. It also gave a Partition coefficient [21] of 1.33 and a Partition coefficient [22] of 1.21.

Work on CCCCCc1cc2c(c(O)c1C(=O)O)C=CC(C)(CCC=C(C)C)O2 (stereo not shown) [CBCA, cannabichromenic acid] yielded a Partition coefficient [1] of 0.22, a Partition coefficient [3] of −0.29 and a Partition coefficient [4] of −0.25. The Partition coefficient [5] was −0.2, the Partition coefficient [6] was 2.09 and the Partition coefficient [7] was 2.59. For the same molecule, the Partition coefficient [10] was 0.93, the Partition coefficient [11] was 1.09 and the Partition coefficient [12] was 1.08. For the same molecule, the Partition coefficient [13] was 1.15, the Partition coefficient [14] was 1.48 and the Partition coefficient [15] was 0.57. It also gave a Partition coefficient [19] of 1.14, a Partition coefficient [21] of 1.24 and a Partition coefficient [22] of 1.17.

CCCCCc1cc(O)c(C/C=C(\C)CCC=C(C)C)c(O)c1 [CBG, cannabigerol] gave a Partition coefficient [3] of 0.01, a Partition coefficient [4] of 0.05 and a Partition coefficient [5] of −0.07. The Partition coefficient [10] was 1.58, the Partition coefficient [11] was 1.6 and the Partition coefficient [12] was 1.53. The Partition coefficient [13] was 1.59, the Partition coefficient [14] was 1.91 and the Partition coefficient [15] was 0.46. For the same molecule, the Partition coefficient [18] was 2.62 and the Partition coefficient [19] was 0.76.
